The text below walks through data of patent US11149023B2, “Substituted triazole derivatives and uses thereof” (Bayer Pharma Aktiengesellschaft, priority 2017, dated 2021).

Assay [1] has as its target human V1a receptor (Homo sapiens (Human), UniProt P37288). The assay can be described thus: Cellular in vitro assay for determining vasopressin receptor activity (V1a, aequorin luminescence). Conditions: for IC50: CHO cell line transfected with human V1a receptor, [Arg8]-vasopressin at EC50 concentration, read-out: IC50 hV1a; for ratio IC50 hV2/hV1a: selectivity, IC50 hV2 divided by IC50 hV1a. It is filed as cell-based.

The target in assay [2] is human V2 receptor (Homo sapiens (Human), UniProt P30518). The assay can be described thus: Cellular in vitro assay for determining vasopressin receptor activity (V2, CRE-luciferase). It is filed as cell-based. As to conditions: CHO cell line transfected with human V2 receptor; [Arg8]-vasopressin at EC50 concentration; read-out: IC50 hV2.

Molecules are shown by their SMILES.

human V1a receptor, sequence (P37288 whole entry): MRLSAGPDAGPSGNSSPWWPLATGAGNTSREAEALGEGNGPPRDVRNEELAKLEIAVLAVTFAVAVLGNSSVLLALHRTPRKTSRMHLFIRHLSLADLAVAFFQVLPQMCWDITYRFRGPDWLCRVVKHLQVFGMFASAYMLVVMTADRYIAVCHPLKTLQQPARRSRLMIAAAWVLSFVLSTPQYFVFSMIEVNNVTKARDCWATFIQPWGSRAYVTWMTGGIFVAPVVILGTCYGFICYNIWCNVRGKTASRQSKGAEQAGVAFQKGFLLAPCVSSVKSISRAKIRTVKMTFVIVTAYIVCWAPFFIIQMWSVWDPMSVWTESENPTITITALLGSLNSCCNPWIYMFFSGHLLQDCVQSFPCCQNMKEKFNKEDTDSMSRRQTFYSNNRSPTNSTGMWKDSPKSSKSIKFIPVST
human V2 receptor, sequence (P30518 whole entry): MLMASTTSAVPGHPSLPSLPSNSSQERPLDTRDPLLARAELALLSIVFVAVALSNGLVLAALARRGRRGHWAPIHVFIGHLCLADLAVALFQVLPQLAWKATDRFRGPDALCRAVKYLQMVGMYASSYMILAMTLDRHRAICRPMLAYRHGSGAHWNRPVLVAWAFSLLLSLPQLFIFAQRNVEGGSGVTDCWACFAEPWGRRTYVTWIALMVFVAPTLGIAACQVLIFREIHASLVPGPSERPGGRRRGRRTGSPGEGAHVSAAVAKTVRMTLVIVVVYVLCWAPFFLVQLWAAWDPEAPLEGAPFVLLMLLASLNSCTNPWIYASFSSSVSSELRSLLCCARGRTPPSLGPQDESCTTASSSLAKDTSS

For orientation: IC50 means the concentration that gives 50% inhibition. As for `O=C1NCC(C(=O)NC(Cn2c(-c3ccc(Cl)cc3)nn(Cc3ncn(-c4ncccc4Cl)n3)c2=O)C(F)(F)F)N1` (centres unmarked) [Example 2], in assay [1], the IC50 amounted to 40.5 nM and the “ratio IC50 hV2/hV1a” value is given as 59.3. Moreover, in assay [2], the half-inhibitory concentration (IC50) was determined as 2400 nM.

`O=C(NC(Cn1c(-c2ccc(Cl)cc2)nn(Cc2ncn(-c3ncccc3Cl)n2)c1=O)C(F)(F)F)C1(C(F)(F)F)CC1` (racemic) [Example 41, N-{3-[3-(4-Chlorophenyl)-1-{[1-(3-chloropyridin-2-yl)-1H-1,2,4-triazol-3-yl]methyl}-5-oxo-1,5-dihydro-4H-1,2,4-triazol-4-yl]-1,1,1-trifluoropropan-2-yl}-1-(trifluoromethyl)cyclopropane-carboxamide]: the results for the IC50 in assay [1] and in assay [2] were 1.5 nM and 57 nM, respectively. Besides, the “ratio IC50 hV2/hV1a” value in assay [1] turned out to be 38.0.

Take `O=C(NC(Cn1c(-c2ccc(Cl)cc2)nn(Cc2ncn(-c3ncccc3Cl)n2)c1=O)C(F)(F)F)[C@@H]1CC(C(F)(F)F)CN1` (some centres unmarked) [Example 50]: in assay [1], the IC50 is 3.2 nM and the “ratio IC50 hV2/hV1a” value came out at 46.9. For the same compound, the concentration for half-maximal inhibition (IC50) in assay [2] is 150 nM.

Take `O=C(NC(Cn1c(-c2ccc(Cl)cc2)nn(Cc2ncn(-c3ncccc3C(F)(F)F)n2)c1=O)C(F)(F)F)C1CC1(F)F` (centres unmarked) [Example 66, N-{3-[3-(4-Chlorophenyl)-5-oxo-1-({1-[3-(trifluoromethyl)pyridin-2-yl]-1H-1,2,4-triazol-3-yl}methyl)-1,5-dihydro-4H-1,2,4-triazol-4-yl]-1,1,1-trifluoropropan-2-yl}-2,2-difluorocyclopropane-1-carboxamide]: in assay [1], the IC50 was determined as 5.4 nM and the “ratio IC50 hV2/hV1a” value came out at 45.4. For the same compound, in assay [2], the half-inhibitory concentration (IC50) turned out to be 245 nM.

Regarding `O=C(CCC(F)(F)F)NC(Cn1c(-c2ccc(Cl)cc2)nn(Cc2ncn(-c3ncccc3Cl)n2)c1=O)C(F)(F)F` (single isomer, unassigned) [Example 33, N-{3-[3-(4-Chlorophenyl)-1-{[1-(3-chloropyridin-2-yl)-1H-1,2,4-triazol-3-yl]methyl}-5-oxo-1,5-dihydro-4H-1,2,4-triazol-4-yl]-1,1,1-trifluoropropan-2-yl}-4,4,4-trifluorobutanamide], the half-maximal inhibitory concentration (IC50) in assay [1] turned out to be 215 nM; in assay [2] it was 5600 nM.

For `O=C(NC(Cn1c(-c2ccc(Cl)cc2)nn(Cc2ncn(-c3ncccc3Cl)n2)c1=O)C(F)(F)F)C1CS(=O)(=O)C1` (single isomer, unassigned) [Example 40, N-{3-[3-(4-Chlorophenyl)-1-{[1-(3-chloropyridin-2-yl)-1H-1,2,4-triazol-3-yl]methyl}-5-oxo-1,5-dihydro-4H-1,2,4-triazol-4-yl]-1,1,1-trifluoropropan-2-yl}thietane-3-carboxamide 1,1-dioxide], the half-inhibitory concentration (IC50) in assay [1] turned out to be 370 nM; in assay [2], 9870 nM.

For the compound `CC(C)(C)OC(=O)N1CC(F)(F)C1C(=O)NC(Cn1c(-c2ccc(Cl)cc2)nn(Cc2ncn(-c3ncccc3Cl)n2)c1=O)C(F)(F)F` (centres unmarked) [Example 54, tert-Butyl 2-({3-[3-(4-chlorophenyl)-1-{[1-(3-chloropyridin-2-yl)-1H-1,2,4-triazol-3-yl]methyl}-5-oxo-1,5-dihydro-4H-1,2,4-triazol-4-yl]-1,1,1-trifluoropropan-2-yl}carbamoyl)-3,3-difluoro-azetidine-1-carboxylate], in assay [1], the IC50 was 3.9 nM and the “ratio IC50 hV2/hV1a” value stood at 42.3. Also, in assay [2], the IC50 came out at 165 nM.

Take `CC(=O)OC(C)(C)C(=O)NC(Cn1c(-c2ccc(Cl)cc2)nn(Cc2ncn(-c3ncccc3Cl)n2)c1=O)C(F)(F)F` (racemic) [Example 16, 1-({3-[3-(4-Chlorophenyl)-1-{[1-(3-chloropyridin-2-yl)-1H-1,2,4-triazol-3-yl]methyl}-5-oxo-1,5-dihydro-4H-1,2,4-triazol-4-yl]-1,1,1-trifluoropropan-2-yl}amino)-2-methyl-1-oxopropan-2-yl acetate]: the results for the IC50 in assay [1] and in assay [2] were 5.05 nM and 140 nM, respectively. Moreover, in assay [1], the “ratio IC50 hV2/hV1a” value worked out at 27.7.

In the case of `O=C(NC(Cn1c(-c2ccc(Cl)cc2)nn(Cc2ncn(-c3ncccc3Cl)n2)c1=O)C(F)(F)F)C1CS(=O)(=O)C1` (single isomer, unassigned) [Example 39, N-{3-[3-(4-Chlorophenyl)-1-{[1-(3-chloropyridin-2-yl)-1H-1,2,4-triazol-3-yl]methyl}-5-oxo-1,5-dihydro-4H-1,2,4-triazol-4-yl]-1,1,1-trifluoropropan-2-yl}thietane-3-carboxamide 1,1-dioxide], the half-maximal inhibitory concentration (IC50) is 0.48 nM in assay [1] and 53.2 nM in assay [2].

Turning to `O=C(NC(Cn1c(-c2ccc(Cl)cc2)nn(Cc2ncn(-c3ncccc3Cl)n2)c1=O)C(F)(F)F)C1CCN1` (centres unmarked) [Example 57, N-{3-[3-(4-Chlorophenyl)-1-{[1-(3-chloropyridin-2-yl)-1H-1,2,4-triazol-3-yl]methyl}-5-oxo-1,5-dihydro-4H-1,2,4-triazol-4-yl]-1,1,1-trifluoropropan-2-yl}azetidine-2-carboxamide], in assay [1], the half-inhibitory concentration (IC50) stood at 31.5 nM and the “ratio IC50 hV2/hV1a” value came to 62.8. In addition, the IC50 in assay [2] stood at 1980 nM.

Consider `CS(=O)(=O)NCC(=O)NC(Cn1c(-c2ccc(Cl)cc2)nn(Cc2ncn(-c3ncccc3Cl)n2)c1=O)C(F)(F)F` (racemic) [Example 19, N-{3-[3-(4-Chlorophenyl)-1-{[1-(3-chloropyridin-2-yl)-1H-1,2,4-triazol-3-yl]methyl}-5-oxo-1,5-dihydro-4H-1,2,4-triazol-4-yl]-1,1,1-trifluoropropan-2-yl}-N^2-(methylsulfonyl)glycinamide], for which the IC50 in assay [1] was 2.2 nM; in assay [2], 102 nM. Further, the “ratio IC50 hV2/hV1a” value in assay [1] was 46.1.

On to `O=C(CCC(F)(F)F)NC(Cn1c(-c2ccc(Cl)cc2)nn(Cc2ncn(-c3ncccc3Cl)n2)c1=O)C(F)(F)F` (racemic) [Example 32, N-{3-[3-(4-Chlorophenyl)-1-{[1-(3-chloropyridin-2-yl)-1H-1,2,4-triazol-3-yl]methyl}-5-oxo-1,5-dihydro-4H-1,2,4-triazol-4-yl]-1,1,1-trifluoropropan-2-yl}-4,4,4-trifluorobutanamide], for which the IC50 in assay [1] was 1.17 nM; in assay [2], 78.2 nM. Also, in assay [1], the “ratio IC50 hV2/hV1a” value is given as 67.0.

Consider `COCC(=O)NC(Cn1c(-c2ccc(Cl)cc2)nn(Cc2ncn(-c3ncccc3Cl)n2)c1=O)C(F)(F)F` (racemic) [Example 6, N-{3-[3-(4-Chlorophenyl)-1-{[1-(3-chloropyridin-2-yl)-1H-1,2,4-triazol-3-yl]methyl}-5-oxo-1,5-dihydro-4H-1,2,4-triazol-4-yl]-1,1,1-trifluoropropan-2-yl}-2-methoxyacetamide], for which, in assay [1], the IC50 is 5.65 nM and the “ratio IC50 hV2/hV1a” value is given as 111.5. In addition, the IC50 in assay [2] was 630 nM.

For `CCC(=O)NC(Cn1c(-c2ccc(Cl)cc2)nn(Cc2ncn(-c3ncccc3Cl)n2)c1=O)C(F)(F)F` (racemic) [Example 13, N-{3-[3-(4-Chlorophenyl)-1-{[1-(3-chloropyridin-2-yl)-1H-1,2,4-triazol-3-yl]methyl}-5-oxo-1,5-dihydro-4H-1,2,4-triazol-4-yl]-1,1,1-trifluoropropan-2-yl}propanamide], in assay [1], the IC50 turned out to be 6.95 nM and the “ratio IC50 hV2/hV1a” value was found to be 37.4. Besides, the half-inhibitory concentration (IC50) in assay [2] was 260 nM.

Turning to `O=C(NC(Cn1c(-c2ccc(Cl)cc2)nn(Cc2ncn(-c3ncccc3Cl)n2)c1=O)C(F)(F)F)[C@@H]1C[C@H](F)CN1` (mixture of isomers) [Example 48, N-{3-[3-(4-Chlorophenyl)-1-{[1-(3-chloropyridin-2-yl)-1H-1,2,4-triazol-3-yl]methyl}-5-oxo-1,5-dihydro-4H-1,2,4-triazol-4-yl]-1,1,1-trifluoropropan-2-yl}-4-fluoro-prolinamide], the IC50 in assay [1] stood at 5.4 nM; in assay [2], 305 nM.

As to `O=C(NC(Cn1c(-c2ccc(Cl)cc2)nn(Cc2ncn(-c3ncccc3Cl)n2)c1=O)C(F)(F)F)C1CC1` (racemic) [Example 14, N-{3-[3-(4-Chlorophenyl)-1-{[1-(3-chloropyridin-2-yl)-1H-1,2,4-triazol-3-yl]methyl}-5-oxo-1,5-dihydro-4H-1,2,4-triazol-4-yl]-1,1,1-trifluoropropan-2-yl}cyclopropanecarboxamide], the IC50 turned out to be 12.4 nM in assay [1] and 220 nM in assay [2]. In addition, the “ratio IC50 hV2/hV1a” value in assay [1] is 17.7.
